One assay concerns the target T1, EGFR (Homo sapiens, UniProt P00533).
T1 construct: GST; made in house; host or cells: Sf9 insect cells (baculovirus)
In words: Receptor tyrosine kinase inhibition, [γ-33P]-ATP competition FlashPlate assay. The format is biochemical. As to conditions: Ki determined from IC50, competitive binding mode, 15 µM ATP, Km ATP 1.3 µM; n.a. = not active. As for the experimental part: (§1) The protein kinases were expressed by means of the baculovirus expression system in Sf9 insect cells as human recombinant GST fusion proteins and purified by affinity chromatography using GSH-agarose. The kinase identity was confirmed by mass spectrometry using LC-ESI-MS/MS technique.
The measuring of protein kinase activity was performed in 96-well FlashPlates^TM from Perkin Elmer in a 50 µL reaction volume. The reaction mixture consisted of 20 µL of assay buffer solution, 5 µL of ATP solution in water, 5 µL of used test compound in a 10% dmso solution and, finally, a premixture of each 10 µL of used substrate and enzyme solutions. […] The final kinase concentration has been 10 ng/50 µL for EGFR and 20 ng/50 µL for PDGFR-β. […] The reaction mixtures were incubated at 30 °C for 60 min. The reaction was stopped with 50 µL of a 2% (v/v) solution of phosphoric acid. Then the plates were aspirated and washed twice with 200 µL of water and a 0.9% solution of sodium chloride. The incorporation of ^33 P was determined with a microplate scintillation counter. Ten different inhibitor concentrations were measured in a range of 3 nM to 100 µM. The residual activity (%) and the IC50 values were finally calculated.

A further assay has as its target T2, PDGFR-β (Homo sapiens, UniProt P09619).
T2 construct: GST; made in house; host or cells: Sf9 insect cells (baculovirus)
Described as above. The assay is classed as biochemical. To be noted: for Ki values PDGFR-β / Ki: Ki determined from IC50, competitive binding mode, 15 µM ATP, Km ATP 0.989 µM, n.a. = not active. As for the experimental part:
as §1
The measuring of protein kinase activity was performed in 96-well FlashPlates^TM from Perkin Elmer in a 50 µL reaction volume. The reaction mixture consisted of 20 µL of assay buffer solution, 5 µL of ATP solution in water, 5 µL of used test compound in a 10% dmso solution and, finally, a premixture of each 10 µL of used substrate and enzyme solutions. The assay buffer solution contained 70 mM of HEPES-NAOH pH 7.5, each 3 mM of magnesium chloride and manganese(II) chloride, 3 µM of sodium orthovanadate, 1.2 mM of DTT, 50 µg/mL of PEG20000 and finally 15 µM of [γ-^33 P]-ATP making approximately 9 × 10^5 cpm per well. The final kinase concentration has been 10 ng/50 µL for EGFR and 20 ng/50 µL for PDGFR-β. The substrate was Poly(Glu,Tyr)4:1 for EGFR and Poly(Ala, Glu, Lys, Tyr)6:2:5.1 for PDFGR-β, both used in a concentration of 125 ng/50 µL. The reaction mixtures were incubated at 30 °C for 60 min. The reaction was stopped with 50 µL of a 2% (v/v) solution of phosphoric acid. Then the plates were aspirated and washed twice with 200 µL of water and a 0.9% solution of sodium chloride. The incorporation of ^33 P was determined with a microplate scintillation counter. Ten different inhibitor concentrations were measured in a range of 3 nM to 100 µM. The residual activity (%) and the IC50 values were finally calculated. From the IC50 values the affinity constants Ki were determined using the equation: IC50 =1/2 [Etotal]+Ki × (1 + [S]/Km) following a competitive inhibitor binding mode[19] (Table 1). The used Km values for ATP have been measured with 1.3 µM for EGFR and with 0.989 µM for PDGFR-β.

A further assay concerns NSCLC cell lines. Put plainly: Cellular growth inhibition assay (NCI, SRB staining), span over the cell lines. The format is cell-based. As to conditions: Homo sapiens, span over EKV X, NCI-H23, NCI-H322M, read-out: growth inhibition rates in the NSCLC cell lines. As for the experimental part: (§2) Cells were inoculated into 96 well microtiter plates in […] at plate densities ranging from 5000 to 40.000 cells per well depending from the individual cell doubling time. Then the cell- containing plates were incubated at 37 °C under an air atmosphere containing 5% of carbon dioxide and with a relative humidity for 24 h. After that time two plates of each cell line were fixed in situ with TCA as control before drug addition. Then the drug containing dmso stock solutions were used and mixed with the cell culture medium containing […] of gentamicin. Aliquots of […] of the respective dilution were added to the preincubated plates reaching a final drug concentration of 10 µM. The plates were incubated again under the preincubation conditions as described for 48 h. Then cells were fixed under addition of 50 ml of a cold 50% solution of TCA reaching a final concentration of 10% TCA. Incubation continued for 60 min at 4 °C. The supernatant was discarded and the plates were washed with water for five times and dried at air. Then a sulforhodamine (SRB) solution (0.4%) in acetic acid (1%) was added to each well and plates were incubated again for 10 min. The unbound dye was removed by washing for five times with an acetic acid solution (1%) and the plates were dried at air. The bound stain was solubilised with a […] solution of trizma base and the absorbance was measured with a plate reader at a wavelength of 515 nm. The growth inhibition measured as lowered net protein increase after SRB staining was determined in relation to the untreated control cells (Table 2).
(§3) In first screening studies carried out with an initial concentration of 10 µM by the National Cancer Institute of Health (NCI) the growth inhibition of respective non-small cell lung cancer (NSCLC) cell lines and of prostate cancer cell lines was determined.

Assay [1] concerns NCI-H322M non-small cell lung cancer cell line. In words: Cellular growth inhibition assay (NCI, SRB staining). The format is cell-based. To be noted: Homo sapiens, 48 h, read-out: Compound growth inhibition. The procedure:
as §2, §3

For assay [2], the system named is EKV X non-small cell lung cancer cell line. Described as above. The assay is classed as cell-based. To be noted: Homo sapiens, EKVX, 48 h, read-out: Compound growth inhibition. As for the experimental part:
as §2, §3

Assay [3] concerns DU-145 prostate cancer cell line. The description is as above. The assay is classed as cell-based. As to conditions: Homo sapiens; DU-145, 10 µM, 48 h; read-out: Compound growth inhibition. The procedure:
as §2, §3

Assay [4] concerns NCI-H23 non-small cell lung cancer cell line. The description is as above. The assay is classed as cell-based. As to conditions: Homo sapiens; NCI-H23, 10 µM, 48 h; read-out: Compound growth inhibition. As for the experimental part:
as §2, §3

Assay [5] deals with PC-3 prostate cancer cell line. The assay is described as above. The format is cell-based. To be noted: Homo sapiens; PC-3, 10 µM, 48 h; read-out: Compound growth inhibition. As for the experimental part:
as §2, §3

Assay [6] deals with prostate cancer cell lines. Put plainly: Cellular growth inhibition assay (NCI, SRB staining), span over the cell lines. To be noted: Homo sapiens; span over PC-3 and DU-145, 10 µM; read-out: growth inhibition rates in the prostate cancer cell lines. The assay is classed as cell-based. As for the experimental part: as §2, §3
Assay [7] relates to DU-145 prostate cancer cell line. On the set-up: method as in PMID 19179890, PMID 16926630. To be noted: DU-145, reported for comparison; cited from earlier work.
In assay [8] the test system is PC-3 prostate cancer cell line. On the set-up: method as in PMID 19179890, PMID 16926630. As to conditions: PC-3, reported for comparison; cited from earlier work.
Assay [9] deals with NCI-H23 non-small cell lung cancer cell line. Set-up: method as in PMID 19179890, PMID 16926630. As to conditions: NCI-H23, reported for comparison; cited from earlier work.

SMILES strings stand for the structures.

T2 sequence (P09619 33-1106): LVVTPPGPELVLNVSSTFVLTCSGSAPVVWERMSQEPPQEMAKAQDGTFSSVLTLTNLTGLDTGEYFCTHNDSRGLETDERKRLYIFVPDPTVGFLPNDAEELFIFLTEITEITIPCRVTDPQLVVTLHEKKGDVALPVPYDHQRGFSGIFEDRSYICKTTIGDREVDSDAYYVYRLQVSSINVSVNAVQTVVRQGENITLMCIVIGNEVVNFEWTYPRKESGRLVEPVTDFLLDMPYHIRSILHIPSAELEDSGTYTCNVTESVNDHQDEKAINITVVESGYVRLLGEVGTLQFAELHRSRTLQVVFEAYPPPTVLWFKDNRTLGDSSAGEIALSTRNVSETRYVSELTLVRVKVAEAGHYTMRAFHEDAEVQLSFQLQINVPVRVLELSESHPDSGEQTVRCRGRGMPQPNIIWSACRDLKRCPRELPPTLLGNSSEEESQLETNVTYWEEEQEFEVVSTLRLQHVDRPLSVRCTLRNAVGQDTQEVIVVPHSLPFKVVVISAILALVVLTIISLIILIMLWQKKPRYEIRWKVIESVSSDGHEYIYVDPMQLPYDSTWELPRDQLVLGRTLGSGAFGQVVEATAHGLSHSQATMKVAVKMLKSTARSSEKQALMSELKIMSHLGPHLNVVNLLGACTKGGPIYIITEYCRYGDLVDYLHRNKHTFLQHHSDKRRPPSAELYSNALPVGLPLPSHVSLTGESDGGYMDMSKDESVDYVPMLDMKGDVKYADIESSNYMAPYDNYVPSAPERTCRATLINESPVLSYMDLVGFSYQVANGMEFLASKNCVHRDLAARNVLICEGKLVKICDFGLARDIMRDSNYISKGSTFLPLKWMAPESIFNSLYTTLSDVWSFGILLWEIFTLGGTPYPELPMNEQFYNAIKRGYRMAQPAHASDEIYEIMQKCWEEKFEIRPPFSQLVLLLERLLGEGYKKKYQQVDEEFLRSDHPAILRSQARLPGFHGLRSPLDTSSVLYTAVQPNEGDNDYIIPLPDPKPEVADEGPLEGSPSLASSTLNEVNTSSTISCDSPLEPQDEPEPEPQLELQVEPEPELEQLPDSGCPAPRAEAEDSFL
T1 sequence (P00533 25-1210): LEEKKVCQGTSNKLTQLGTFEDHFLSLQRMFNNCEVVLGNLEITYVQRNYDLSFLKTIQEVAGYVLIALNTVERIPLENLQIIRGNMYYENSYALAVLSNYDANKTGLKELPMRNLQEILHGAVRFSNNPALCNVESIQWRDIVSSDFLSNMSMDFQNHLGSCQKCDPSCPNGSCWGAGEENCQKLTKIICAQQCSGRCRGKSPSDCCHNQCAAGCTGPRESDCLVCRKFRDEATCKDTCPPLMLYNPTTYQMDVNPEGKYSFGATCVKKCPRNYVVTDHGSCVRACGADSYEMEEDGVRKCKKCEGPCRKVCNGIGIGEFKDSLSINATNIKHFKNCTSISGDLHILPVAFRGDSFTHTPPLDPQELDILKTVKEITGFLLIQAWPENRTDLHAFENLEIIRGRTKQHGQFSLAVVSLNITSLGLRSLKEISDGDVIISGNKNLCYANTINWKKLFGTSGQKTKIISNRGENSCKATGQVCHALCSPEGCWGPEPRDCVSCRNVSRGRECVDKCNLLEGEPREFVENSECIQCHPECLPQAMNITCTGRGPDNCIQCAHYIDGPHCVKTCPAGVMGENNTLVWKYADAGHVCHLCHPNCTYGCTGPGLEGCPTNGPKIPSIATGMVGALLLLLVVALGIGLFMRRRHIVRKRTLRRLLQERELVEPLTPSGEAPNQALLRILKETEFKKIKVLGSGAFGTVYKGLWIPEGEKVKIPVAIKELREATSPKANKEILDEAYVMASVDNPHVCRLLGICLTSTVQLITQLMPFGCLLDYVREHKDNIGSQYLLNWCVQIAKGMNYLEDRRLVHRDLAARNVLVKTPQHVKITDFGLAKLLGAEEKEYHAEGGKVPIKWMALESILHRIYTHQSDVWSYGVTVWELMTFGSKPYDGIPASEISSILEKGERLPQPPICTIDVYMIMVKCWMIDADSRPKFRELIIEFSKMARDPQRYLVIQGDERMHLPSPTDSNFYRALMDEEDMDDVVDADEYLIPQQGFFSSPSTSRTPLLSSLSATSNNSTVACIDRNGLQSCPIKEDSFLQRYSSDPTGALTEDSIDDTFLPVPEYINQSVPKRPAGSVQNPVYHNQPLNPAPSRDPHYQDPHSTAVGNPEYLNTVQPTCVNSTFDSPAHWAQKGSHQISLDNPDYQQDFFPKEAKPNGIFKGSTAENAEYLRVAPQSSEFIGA

Consider `CCOc1cccc(Nc2nc(N)nc3[nH]c4ccc(O)cc4c23)c1` [Compound 5a, 2-Amino-4-((3-ethoxyphenyl)amino)-9H-pyrimido[4,5-b]indol-6-ol], for which the inhibition constant Ki on EGFR stood at 181 ± 14 nM. The “Ki values PDGFR-β” value at PDGFR-β is recorded as “not active”. Further, the inhibition at 10 µM was 32 to 71% with NSCLC cell lines; 35% in [1]; 71% in assay [2]; 51% in assay [3]; 32% in assay [4]; 25% in [5].

With `CC(C)Oc1cccc(Nc2nc(N)nc3[nH]c4ccc(O)cc4c23)c1` [Compound 5b, 2-Amino-4-((3-isopropoxyphenyl)amino)-9H-pyrimido[4,5-b]indol-6-ol], the “Ki values EGFR” value on EGFR is reported as “lost”. Moreover, the Ki on PDGFR-β worked out at 2750 ± 184 nM.

As to `C#Cc1cccc(Nc2nc(N)nc3[nH]c4ccc(O)cc4c23)c1` [Compound 5c, 2-Amino-4-((3-ethinylphenyl)amino)-9H-pyrimido[4,5-b]indol-6-ol], the values for the inhibition constant Ki on EGFR and on PDGFR-β were 149 ± 66 nM and 3530 ± 200 nM, respectively.

For `CCOc1ccc(Nc2nc(N)nc3[nH]c4ccc(O)cc4c23)cc1` [Compound 5d, 2-Amino-4-((4-ethoxyphenyl)amino)-9H-pyrimido[4,5-b]indol-6-ol], the Ki worked out at 935 ± 84 nM on EGFR and 1910 ± 150 nM on PDGFR-β.

Turning to `CC(C)Oc1ccc(Nc2nc(N)nc3[nH]c4ccc(O)cc4c23)cc1` [Compound 5e, 2-Amino-4-((4-isopropoxyphenyl)amino)-9H-pyrimido[4,5-b]indol-6-ol], the Ki was 574 ± 110 nM on EGFR and 1940 ± 218 nM on PDGFR-β.

Molecule `C#Cc1ccc(Nc2nc(N)nc3[nH]c4ccc(O)cc4c23)cc1` [Compound 5f, 2-Amino-4-((4-ethinylphenyl)amino)-9H-pyrimido[4,5-b]indol-6-ol] displayed an inhibition constant (Ki) at EGFR of 421 ± 66 nM. Moreover, the “Ki values PDGFR-β” value at PDGFR-β is listed as “not active”.

At EGFR, `Nc1nc(Nc2ccc(Cl)cc2)c2c(n1)[nH]c1ccc(O)cc12` [Compound 5g, 2-Amino-4-((4-chlorophenyl)amino)-9H-pyrimido[4,5-b]indol-6-ol] showed an inhibition constant (Ki) of 686 ± 82 nM. Also, the “Ki values PDGFR-β” value on PDGFR-β is on record as “not active”.

Regarding `Nc1nc(Nc2ccc(Br)cc2)c2c(n1)[nH]c1ccc(O)cc12` [Compound 5h, 2-Amino-4-((4-bromophenyl)amino)-9H-pyrimido[4,5-b]indol-6-ol], the inhibitory constant (Ki) amounted to 475 ± 143 nM at EGFR and 3230 ± 195 nM at PDGFR-β.

As for `COc1ccc(COc2ccc(Nc3nc(N)nc4[nH]c5ccc(O)cc5c34)cc2)cc1` [Compound 5i], the Ki on EGFR amounted to 413 ± 111 nM; at PDGFR-β, 72 ± 15 nM. Moreover, the inhibition at 10 µM in the assay on NSCLC cell lines was 1 to 29%; in assay [6] it was 15 to 25%; in [1], 1%; in assay [2], 29%; in [3] it was 15%; in assay [4] it was 9%. Moreover, the inhibition at 10 µM in assay [5] was 25%.

As to `COc1cccc(COc2ccc(Nc3nc(N)nc4[nH]c5ccc(O)cc5c34)cc2)c1` [Compound 5j], the inhibitory constant (Ki) at EGFR worked out at 132 ± 99 nM; at PDGFR-β, 209 ± 15 nM.

As for `Nc1nc(Nc2ccc(OCc3cccc(F)c3)cc2)c2c(n1)[nH]c1ccc(O)cc12` [Compound 5k], the Ki at EGFR turned out to be 170 ± 85 nM; at PDGFR-β, 81 ± 10 nM. Besides, the inhibition at 10 µM in assay [1] turned out to be 96%; in assay [2], 90%; in [3], 90%; in [4] it was 93%; in assay [5] it was 95%.

Regarding `COc1ccc(COc2ccc(Nc3nc(N)nc4[nH]c5ccc(O)cc5c34)cc2Cl)cc1` [Compound 5l, 2-Amino-4-((3-chloro-4-((4-methoxybenzyl)oxy)phenyl)amino)-9H-pyrimido[4,5-b]indol-6-ol], the values for the Ki on EGFR and at PDGFR-β were 103 ± 37 nM and 213 ± 35 nM, respectively.

As to `Oc1ccc2[nH]c3ncnc(Nc4ccc(OCc5cccc(F)c5)cc4)c3c2c1` [Compound 5m], the values for the Ki at EGFR and on PDGFR-β were 189 ± 27 nM and 3660 ± 210 nM, respectively. For the same molecule, the “decrease in the PDGFR-β affinity by a factor” value on PDGFR-β (compared to the 2-amino compound 5k) is on record as “fifty”.

As to `C#Cc1cccc(Nc2ncnc3cc(OCCOC)c(OCCOC)cc23)c1` [erlotinib], the values for the growth inhibition rate in assay [7], in assay [8] and in [9] were 45%, 40% and 20%, respectively.

The record behind these values is paper PMC6009873, “Discovery of novel dual inhibitors of receptor tyrosine kinases EGFR and PDGFR-β related to anticancer drug resistance” (Journal of Enzyme Inhibition and Medicinal Chemistry, 2017).
